“And” between values parts separate entries of the source, which are not always exact repeats. Identical values can stand only once. Like-named read-outs stand apart in the source and are kept apart here.
Experiments:
[1] = test system: blood cancer cells (Mv4-11); experiment: IC50 in blood cancer cells (Mv4-11) at different exposure times; format: cell-based; details: Homo sapiens
Procedure: Furthermore, the half maximal inhibitory concentration (IC50) was measured at 1 hr, 2 hr, and 4 hr after the blood cancer cells (Mv4-11) were treated with aza-T-dCyd starting material (SM). […] In addition, the measured IC50 at 4 hr was about 80 nM, which was much higher than the expected value of 20 nM. Therefore, it was confirmed that the efficiency of aza-T-dCyd starting material (SM) greatly decreases as the exposure time of the compound to the cells increases.

[2] = Pharmacokinetics of capsules in male SD rats; details: 2 mg/kg; for AUC(0-inf) / AUC(0-t) / Cmax / MRT inf / half-life / Tmax: po; for AUC(0-inf): AUCInf; for AUC(0-t): AUClast; for MRT inf: MRTInf_obs
tumor = experiment: Tumor size (in vivo luciferase activity) in female NOD-SCID mice; details: for tumor size (in vivo luciferase activity): 5 days on, 2 days rest, 9 days rest, repeated, FIG. 17
Procedure: Aza-T-dCyd starting material (SM) was administered to […] female NOD-SCID mice splitting into four groups. Group 1 was a vehicle control group. In group 2, 2.0 mg/kg of aza-T-dCyd starting material (SM) was administered once a day, and in group 3, 1.0 mg/kg of aza-T-dCyd starting material (SM) was administered twice a day. In groups 2 and 3, aza-T-dCyd starting material (SM) in the above amounts was administered for 5 days followed by 2 days as a rest period, and was administered again for another 5 days followed by 9 days as another rest period. This cycle was repeated. In group 4, 1.0 mg/kg of aza-T-dCyd starting material (SM) was administered once a day for five days followed by 2 days as a rest period, and this cycle was repeated.

HL-60 cell lines = experiment: CellTiter-Glo cell viability, HL-60; format: cell-based; details: HL-60, 3 days, FIG. 24
Procedure: (§1) K562 and HL-60 cell lines were cultured and maintained in RPMI (10% FBS, 1% Penicillin-Streptomycin) medium at 37° C., 95% Air, and 5% CO2. K562 and HL-60 cell lines were each seeded in 96-well plates at a density of 3000 cells/well (90 μl). Form A and SM were treated in each well at a final concentration of 10 μM by treating 10 μl using 3-fold dilution. The cells were incubated for 3 days at 37° C., 95% Air, and 5% CO2. 96-well plates were placed in room temperature for 30 minutes in order to equilibrate. Then, 100 μl of CellTiter-Glo® Luminescent Cell Viability Assay Reagent was added in 96-wells and incubated for 10 minutes in room temperature. Luminescence was measured using Luminometer and IC50 value was analyzed using GraphPrism.

K562 cell lines = experiment: CellTiter-Glo cell viability, K562; format: cell-based; details: K562, 3 days, FIG. 23
Procedure: as §1

[3] = Dissolution rate (IDR) at pH 1.2, 6.5 and 5.0; format: physicochemical
[4] = 0.25 h, capsule (8:92 w/w with microcrystalline cellulose), male SD rat
[5] = 0.25 h, capsule, mean of two male SD rats
[6] = 0.5 h, capsule, mean of two male SD rats
[7] = capsule, mean of two male SD rats
[8] = male, SD, rat, plasma, Mean, capsule, mean of two male SD rats
[9] = male, SD, rat, plasma, individual rat, capsule, male SD rat

## Nc1ncn([C@H]2C[C@H](O)[C@@H](CO)S2)c(=O)n1 [SM, 5-Aza-4′-thio-2′-deoxycytidine]
[1]; Mv4-11, 1 hr after treatment, read-out: measured IC50 at 1 hr
  IC50: ~160 nM
[1]; Mv4-11, 2 hr after treatment, read-out: measured IC50 at 2 hr
  IC50: ~120 nM
[1]; Mv4-11, 4 hr after treatment, read-out: measured IC50 at 4 hr
  IC50: ~80 nM
[1]; Mv4-11, expected from the IC50 measured at 1 hr, read-out: expected IC50 at 2 hr
  IC50: 80 nM
[1]; Mv4-11, expected from the IC50 measured at 1 hr, read-out: expected IC50 at 4 hr
  IC50: 20 nM
[2]; [4]
  Concentration (plasma), individual rat: 29.1 ng/mL and 64.9 ng/mL
[2]; [5]
  Concentration (plasma), Mean: 47.0 ng/mL
[2]; 0.5 h, capsule, male SD rat
  Concentration (plasma), individual rat: 123 ng/mL and 243 ng/mL
[2]; [6]
  Concentration (plasma), Mean: 183 ng/mL
[2]; 1 h, capsule, male SD rat
  Concentration (plasma), individual rat: 321 ng/mL and 610 ng/mL
[2]; 2 h, capsule, male SD rat
  Concentration (plasma), individual rat: 613 ng/mL
[2]; 4 h, capsule, male SD rat
  Concentration (plasma), individual rat: 442 ng/mL
[2]; 6 h, capsule, male SD rat
  Concentration (plasma), individual rat: 283 ng/mL
[2]; 8 h, capsule, male SD rat
  Concentration (plasma), individual rat: 199 ng/mL
[2]; 24 h, capsule, male SD rat
  Concentration (plasma), individual rat: 2.65 ng/mL and 4.48 ng/mL
[2]; capsule, male SD rat
  AUCInf, individual rat: 4780 ng·h/mL
  AUC_%Extrap_obs, individual rat: 0.255% and 0.402%
  AUClast, individual rat: 4761 ng·h/mL
  AUClast/D, individual rat: 2030 ng·h/mL per mg/kg and 2380 ng·h/mL per mg/kg
  Cmax, individual rat: 613 ng/mL
  MRTInf_obs, individual rat: 5.23 h
  T1/2, individual rat: 2.98 h
[2]; [7]
  AUC_%Extrap_obs, Mean: 0.329%
  AUClast/D, Mean: 2210 ng·h/mL per mg/kg
[2]; male, SD, rat, plasma, oral, Concentration (plasma), Mean, 1 h, capsule, mean of two male SD rats
  concentration at 1 h: 466 ng/mL
[2]; male, SD, rat, plasma, oral, Concentration (plasma), Mean, 2 h, capsule, mean of two male SD rats
  concentration at 2 h: 657 ng/mL
[2]; male, SD, rat, plasma, oral, Concentration (plasma), Mean, 4 h, capsule, mean of two male SD rats
  concentration at 4 h: 415 ng/mL
[2]; male, SD, rat, plasma, oral, Concentration (plasma), Mean, 6 h, capsule, mean of two male SD rats
  concentration at 6 h: 272 ng/mL
[2]; male, SD, rat, plasma, oral, Concentration (plasma), Mean, 8 h, capsule, mean of two male SD rats
  concentration at 8 h: 178 ng/mL
[2]; male, SD, rat, plasma, oral, Concentration (plasma), Mean, 24 h, capsule, mean of two male SD rats
  concentration at 24 h: 3.57 ng/mL
[2]; male, SD, rat, plasma, oral, Concentration (plasma), individual rat, 2 h, capsule, male SD rat
  concentration at 2 h: 700 ng/mL
[2]; male, SD, rat, plasma, oral, Concentration (plasma), individual rat, 4 h, capsule, male SD rat
  concentration at 4 h: 387 ng/mL
[2]; male, SD, rat, plasma, oral, Concentration (plasma), individual rat, 6 h, capsule, male SD rat
  concentration at 6 h: 261 ng/mL
[2]; male, SD, rat, plasma, oral, Concentration (plasma), individual rat, 8 h, capsule, male SD rat
  concentration at 8 h: 156 ng/mL
[2]; [8]
  AUC(0-inf): 4430 ng·h/mL
  AUC(0-t): 4410 ng·h/mL
  Cmax: 657 ng/mL
  MRT inf: 5.15 h
  Tmax: 2 h
[2]; [9]
  AUC(0-inf): 4080 ng·h/mL
  AUC(0-t): 4060 ng·h/mL
  Cmax: 700 ng/mL
  MRT inf: 5.06 h
  Tmax: 2 h
[2]; male, SD, rat, plasma, T1/2, Mean, capsule, mean of two male SD rats
  half-life: 2.85 h
[2]; male, SD, rat, plasma, T1/2, individual rat, capsule, male SD rat
  half-life: 2.72 h
tumor; Group 2 (2.0 mg/kg, once a day) compared with 'Group 1 (1.0 mg/kg, twice a day)', FIG. 18
  tumor size on day 43: significantly smaller
tumor; Group 2: 2.0 mg/kg once a day
  tumor size (in vivo luciferase activity): most greatly suppressed
tumor; Group 3: 1.0 mg/kg twice a day
  tumor size (in vivo luciferase activity): sharply increased after 40 days

## Nc1ncn([C@H]2C[C@H](O)[C@@H](CO)S2)c(=O)n1 [Form A, 5-Aza-4′-thio-2′-deoxycytidine]
[2]; [4]
  Concentration (plasma), individual rat: 77.2 ng/mL and 511 ng/mL
[2]; [5]
  Concentration (plasma), Mean: 294 ng/mL
[2]; 0.5 h, capsule, male SD rat
  Concentration (plasma), individual rat: 254 ng/mL and 721 ng/mL
[2]; [6]
  Concentration (plasma), Mean: 488 ng/mL
[2]; 1 h, capsule, male SD rat
  Concentration (plasma), individual rat: 815 ng/mL and 912 ng/mL
[2]; 1 h, capsule, mean of two male SD rats
  Concentration (plasma), Mean: 864 ng/mL
[2]; 2 h, capsule, male SD rat
  Concentration (plasma), individual rat: 677 ng/mL and 645 ng/mL
[2]; 2 h, capsule, mean of two male SD rats
  Concentration (plasma), Mean: 661 ng/mL
[2]; 4 h, capsule, male SD rat
  Concentration (plasma), individual rat: 556 ng/mL and 420 ng/mL
[2]; 4 h, capsule, mean of two male SD rats
  Concentration (plasma), Mean: 488 ng/mL
[2]; 6 h, capsule, male SD rat
  Concentration (plasma), individual rat: 397 ng/mL and 307 ng/mL
[2]; 6 h, capsule, mean of two male SD rats
  Concentration (plasma), Mean: 352 ng/mL
[2]; 8 h, capsule, male SD rat
  Concentration (plasma), individual rat: 261 ng/mL and 210 ng/mL
[2]; 8 h, capsule, mean of two male SD rats
  Concentration (plasma), Mean: 236 ng/mL
[2]; 24 h, capsule, male SD rat
  Concentration (plasma), individual rat: 6.71 ng/mL and 4.29 ng/mL
[2]; 24 h, capsule, mean of two male SD rats
  Concentration (plasma), Mean: 5.50 ng/mL
[2]; capsule, male SD rat
  AUCInf, individual rat: 6079 ng·h/mL and 5446 ng·h/mL
  AUC_%Extrap_obs, individual rat: 0.485% and 0.329%
  AUClast, individual rat: 6050 ng·h/mL and 5428 ng·h/mL
  AUClast/D, individual rat: 3020 ng·h/mL per mg/kg and 2710 ng·h/mL per mg/kg
  Cmax, individual rat: 815 ng/mL and 912 ng/mL
  MRTInf_obs, individual rat: 5.40 h and 4.83 h
  T1/2, individual rat: 3.05 h and 2.89 h
  Tmax, individual rat: 1.00 h
[2]; capsule, male SD rats
  AUC values higher than SM: about 30%
[2]; capsule, male SD rats, higher than SM
  Cmax value relative to SM: about 1.3 times
[2]; [7]
  AUCInf, Mean: 5763 ng·h/mL
  AUC_%Extrap_obs, Mean: 0.407%
  AUClast, Mean: 5739 ng·h/mL
  AUClast/D, Mean: 2870 ng·h/mL per mg/kg
  Cmax, Mean: 864 ng/mL
  MRTInf_obs, Mean: 5.11 h
  T1/2, Mean: 2.97 h
  Tmax, Mean: 1.00 h
HL-60 cell lines
  IC50 value lower than SM: about 5%
K562 cell lines
  IC50 value lower than SM: about 5%
[3]; FaSSIF, pH 6.5
  IDR: 2.2 ± 0.06 mg/mL/Cm^2/min
[3]; FeSSIF, pH 5.0
  IDR: 4.6 ± 0.07 mg/mL/Cm^2/min
[3]; SGF, pH 1.2
  IDR: 7.4 ± 0.21 mg/mL/Cm^2/min
